Measured values taken from patent US9969715B2, “Compounds useful for treating cancer” (ABIVAX, priority 2012, dated 2018).

Experiments:
[1] = system: MDA-MB231-luc-D3H2LN cells; test: Invasion of MDA-MB231-D3H2LN cells into collagen (example 15 = procedure 2, 48 h drug pre-incubation); type: cell-based; details: concentration giving 50% of the anti-invasive effect of 10 μM Y-27632; 48 h pre-incubation, 24 h with 5% FBS; read-out: MDA: Inhib. of invasion: 0.5 × eff. of 10 μM Y-27632 at (μM) av
Method: Effect of Drug Compounds on Invasion of MDA-MB231-D3H2LN Cells into Collagen
Preparation of cells at the bottom of a collagen gel: Cells are suspended in a liquid collagen solution (4° C.), distributed into BSA-coated wells, and then collected at the bottom of the wells by centrifugation. The collagen is then solidified by incubation at 37° C. The BSA coating improves the adhesion of the collagen gel.
Pre-treatment with the compounds to be tested: Concentrated drug solutions are then added on top of the collagen, and cells are pre-incubated for 48 h with the drugs at low serum conditions (0.025% FBS).
Stimulation of invasion: Medium with 5% FBS is then added in order to stimulate invasion of the cells into the collagen gel.
(§1) Viability assay, fixation and staining: Following another 24 h incubation, an MTS assay is performed directly on the cells in the collagen. Then, cells are fixed and nuclei are stained.
Analysis: Finally, plates are analyzed using an automated microscope. Fluorescent beads that have been included into the BSA coating serve to detect the bottom of the wells. Pictures of the stained nuclei are taken at the same level (0 μm) as well as 25 μm and 50 μm above.
Negative control: No drug (just DMSO at equivalent concentration). Positive control: 10 μM Y-27632. To avoid edge effects, cells are added only to the 60 central wells B2-G11; lines A and H receive only collagen without cells (blank for the MTS assay) columns 1 and 12 remain free. Each drug is tested at least in triplicate. The positive and negative controls should be tested in several triplicates at different positions on each plate. Typical plate map (−=negative control, +=positive control, 1-12=12 different test conditions, i. e. different drug compounds or concentrations):
Preparation of 4× concentrated drug solutions in MEM+0.1% FBS+2% Lutrol E-400+0.8% DMSO: Mix each 620 μl MEM+0.1% FBS+2% Lutrol E-400 with each 4 μl DMSO+each 1 μl of the 50 mM compound stock solutions (yielding […] and 0.8% DMSO). If the desired final compound concentration is <5 μM, then further dilute in MEM+0.1% FBS+0.8% DMSO. Negative control: MEM+0.1% FBS+2% Lutrol E-400+0.8% DMSO without any drug. Preparation of the positive control: Mix 4.5 ml MEM+0.1% FBS+2% Lutrol E-400+[…] with 36 μl 5 mM Y-27632 (freshly thawed aliquot) (yielding 40 μM).
add each 33 μl/well of the 4× concentrated drug solutions in MEM+0.1% FBS+2% Lutrol E-400+0.8% DMSO to the corresponding wells (yields 1× concentrated drugs in MEM+0.025% FBS+0.5% Lutrol E-400+0.2% DMSO final)
incubate 48 h at 37° C./5% CO2
incubate 24 h at 37° C./5% CO2
for each well, calculate the mean invasion distance of the counted cells: (25 μm×number of cells at 25 μm+50 μm×number cells at 50 μm)/sum of cells at 0, 25 and 50 μm
invalidate any replicate with a CV≥50% (compound to be re-tested, or assay to be repeated if CV≥50% for the untreated negative control or the compound Y-27632-treated positive control). Y27632 is a selective inhibitor of the Rho-associated protein kinase p160ROCK of the following formula
validate the assay only if the mean invasion distance of the cells treated with 10 μM Y-27632 (positive control) is decreased by ≥40% as compared to the untreated negative control
(§2) Final analysis: Determine the concentration at which a given compound has 50% of the anti-invasive effect of the positive control (10 μM Y-27632). Determine the toxicity (=loss of viability) of the compound under these conditions.
Here, invasion (into collagen) is the concentration of the compound necessary to reach 50% of the inhibition effect compared to 10 μM Y-27632.
Standard operating procedure 2 is exactly the same as the procedure as described in example 15.

human PBMC = test: Toxicity assay under normal cell culture conditions (MTS), PBMC; type: cell-based; details: human PBMC, RPMI+10% FBS+IL-2, 72 h incubation, MTS
Method: (§3) Toxicity Assays (Under Normal Cell Culture Conditions):
(§4) Compounds were prepared as for the invasion assay, and then added to either MDA-MB231-luc-D3H2LN cells (2000/well) under normal culture conditions (MEM+10% FBS), or human PBMC (75000/well, in RPMI+10% FBS+IL-2) in standard 96-well tissue culture plates. After 72 h incubation, a standard MTS assay was performed according to the manufacturer's instructions (Promega Ref. G3581). Compounds were tested at various concentrations (concentration-response curves) in order to determine the concentrations at which 50% toxicity is obtained.

[2] = system: MDA-MB231-luc-D3H2LN cells; test: Viability (MTS) assay on the cells in collagen under invasion assay conditions; type: cell-based, human; details: loss of viability at the concentration giving 0.5 × effect of 10 μM Y-27632, invasion assay conditions
Method: as §1
(§5) In order to detect possible toxic effects, all compounds are tested in parallel in a viability assay. The viability assay is performed in parallel on serum-starved cells (as in the invasion assay) vs. cells under normal culture conditions (10% FBS).
Viability Assay: MTS Assay:
add each 33 μl/well of the MTS reagent, incubate 3-4 h at 37° C./5% CO2
read absorbance at 490 nm (proportional to the viability)
calculate the background-corrected signals by subtracting the means of the background signals in absence of cells from the corresponding signals in presence of cells
normalize the background-corrected signals with respect to the mean signal of the negative controls (no drug) (viabilities are thus expressed in “% of control”)
as §2

[3] = system: MDA-MB231-luc-D3H2LN cells; test: Toxicity assay under normal cell culture conditions (MTS), MDA cells; type: cell-based, human; details: MDA-MB231-luc-D3H2LN cells, MEM+10% FBS, 72 h incubation, MTS
Method: as §5, §3, §4

CCN(CC)CCCNC(=O)c1cccc(Nc2cccc(C(=O)N(C)c3ccncc3)c2)n1 [Compound 37, N-(3-(diethylamino)propyl)-6-((3-(methyl(pyridin-4-yl)carbamoyl)phenyl)amino)picolinamide]
IC50 [1]: 3.75 µM | PBMC tox.: 50% tox. at (μM) av (human PBMC): >>100 μM | (+ MDA tox. under these cond.) % tox [2]: <10% | MDA tox: 50% tox. at (μM) av [3]: >>100 μM

CCN(CC)CCCNC(=O)c1ccnc(Nc2cccc(C(=O)N(C)c3ccncc3)c2)c1 [Compound 38, N-(3-(diethylamino)propyl)-2-((3-(methyl(pyridin-4-yl)carbamoyl)phenyl)amino)isonicotinamide]
IC50 [1]: 3.75 µM | PBMC tox.: 50% tox. at (μM) av (human PBMC): >>100 μM | (+ MDA tox. under these cond.) % tox [2]: <10% | MDA tox: 50% tox. at (μM) av [3]: >>100 μM

CN1CCN(CCCNC(=O)c2ccnc(Nc3cccc(C(=O)N(C)c4ccncc4)c3)c2)CC1 [Compound 39, 2-((3-(methyl(pyridin-4-yl)carbamoyl)phenyl)amino)-N-(3-(4-methylpiperazin-1-yl)propyl)isonicotinamide]
IC50 [1]: 1.45 µM | PBMC tox.: 50% tox. at (μM) av (human PBMC): 74 µM | (+ MDA tox. under these cond.) % tox [2]: <10% | MDA tox: 50% tox. at (μM) av [3]: 19 µM

CN1CCN(CCCNC(=O)c2ccnc(Nc3cccc(C(=O)Nc4ccncn4)c3)c2)CC1 [Compound 42, N-(3-(4-methylpiperazin-1-yl)propyl)-2-((3-(pyrimidin-4-ylcarbamoyl)phenyl)amino)isonicotinamide]
IC50 [1]: 0.2 µM | PBMC tox.: 50% tox. at (μM) av (human PBMC): >100 µM | (+ MDA tox. under these cond.) % tox [2]: <10% | MDA tox: 50% tox. at (μM) av [3]: ≥100 µM

CCN(CC)CCCNC(=O)c1cccc(Nc2cc(C(=O)Nc3ccncc3)ccn2)n1 [Compound 43, N-(3-(diethylamino)propyl)-6-((4-(pyridin-4-ylcarbamoyl)pyridin-2-yl)amino)picolinamide]
IC50 [1]: 3.25 µM | PBMC tox.: 50% tox. at (μM) av (human PBMC): >100 µM | (+ MDA tox. under these cond.) % tox [2]: <10% | MDA tox: 50% tox. at (μM) av [3]: >100 µM

CCN(CC)CCCNC(=O)c1ccnc(Nc2cc(C(=O)Nc3ccncc3)ccn2)c1 [Compound 44, N-(3-(diethylamino)propyl)-2-((4-(pyridin-4-ylcarbamoyl)pyridin-2-yl)amino)isonicotinamide]
IC50 [1]: 1.15 µM | PBMC tox.: 50% tox. at (μM) av (human PBMC): >100 µM | (+ MDA tox. under these cond.) % tox [2]: <10% | MDA tox: 50% tox. at (μM) av [3]: >100 µM

CN1CCN(CCCNC(=O)c2ccnc(Nc3cc(C(=O)Nc4ccncc4)ccn3)c2)CC1 [Compound 45, N-(3-(4-methylpiperazin-1-yl)propyl)-2-((4-(pyridin-4-ylcarbamoyl)pyridin-2-yl)amino)isonicotinamide]
IC50 [1]: 0.38 µM | PBMC tox.: 50% tox. at (μM) av (human PBMC): >100 µM | (+ MDA tox. under these cond.) % tox [2]: <10% | MDA tox: 50% tox. at (μM) av [3]: >100 µM

CCN(CC)CCCNC(=O)c1cccc(Nc2cc(C(=O)Nc3ccncc3)ccn2)c1 [Compound 47, 2-((3-((3-(diethylamino)propyl)carbamoyl)phenyl)amino)-N-(pyridin-4-yl)isonicotinamide]
IC50 [1]: 2.2 µM | PBMC tox.: 50% tox. at (μM) av (human PBMC): >100 µM | (+ MDA tox. under these cond.) % tox [2]: <10% | MDA tox: 50% tox. at (μM) av [3]: >100 µM

O=C(NCCCN1CCOCC1)c1cccc(Nc2cc(C(=O)Nc3ccncc3)ccn2)c1 [Compound 48, 2-((3-((3-morpholinopropyl)carbamoyl)phenyl)amino)-N-(pyridin-4-yl) isonicotinamide]
IC50 [1]: 0.75 µM | PBMC tox.: 50% tox. at (μM) av (human PBMC): 26 µM | (+ MDA tox. under these cond.) % tox [2]: <10% | MDA tox: 50% tox. at (μM) av [3]: 80 µM
